Entries after “also recorded” stand apart in the source; their conditions may differ.
Test system: rats injected with CFA in a hind paw
Assay: Pain pressure threshold (modified Randall-Selitto) in rats with CFA-inflamed hind paw, acute oral dosing
Assay type: in vivo, rat
Details: for pain pressure threshold: ibuprofen 20 or 50 mg/kg, indomethacin 1 mg/kg intragastric, two hours after dosing, CFA 4 days before, FIG. 4
Experimental: In the second in vivo experiment, we compared the analgesic activity of the acetone preparation of PC-ibuprofen to that of ibuprofen alone (at doses of 20 and 50 mg/kg) in rats and compared the response to a sub-threshod dose of indomethacin (1 mg/kg). The measurements were made on rats, in which 0.1 mL of Complete Freund's Adjuvant (CFA) was subcutaneously injected into the dorsal surface of the left hindpaw, 4 days previously to increase the affected paw's sensitivity to pressure. […] Myeloperoxidase Activity In this experiment, we evaluated the analgesic activity of the test material using a rodent model system previously described in detail. This was accomplished by initially inducing inflammation of a hind paw of male Sprague Dawley rats by subcutaneously injecting 0.1 mL of Complete Freund's Adjuvant (Sigma Chemical Co. St. Louis, Mo.) into the doral surface of the left hind paw. […] For comparison, we also intragastrically administered a group of rats with a sub-threshold dose (1 mg/kg) of the NSAID, indomethacin, that was suspended in 1% methyl cellulose.

How did the pain threshold (CFA induced inflammation, Randall Siletto procedure, ASA formulations, FIG. 13) turn out when `CC(=O)Oc1ccccc1C(=O)O` [ASA, Aspirin] was run?
The pain threshold was “performed similarly”.

Which results are given for `CC(C)Cc1ccc(C(C)C(=O)O)cc1` (stereo not shown) [ibuprofen]?
pain pressure threshold (listed as generic ibuprofen): dose-dependent increase in pain pressure threshold; pain pressure threshold (listed as unmodified ibuprofen): apparent dose-dependent increase in pain pressure threshold

`COc1ccc2c(c1)c(CC(=O)O)c(C)n2C(=O)c1ccc(Cl)cc1` [indomethacin] was tested. Which pain pressure threshold did it give?
Its pain pressure threshold is “no effect; also recorded: non-significant response”.
